Measurements from EP4707280A1, “1,4-CINEOLE DERIVATIVE AND INTERMEDIATE THEREOF, HERBICIDE CONTAINING SAID DERIVATIVE AS ACTIVE INGREDIENT, METHOD FOR USING HERBICIDE, AND METHOD FOR PREPARING AGROCHEMICAL COMPOSITION” (HOKKO CHEMICAL INDUSTRY CO., LTD., priority 2023, dated 2024).

Experiments:
Assay type in all cases: in vivo
[1] = test system: Echinochloa crus-galli; assay: Test Example 7: herbicidal effect test by soil application in upland field (low dose); details: Echinochloa crus-galli, 7.5 g per 10 ares, sprayed one day after sowing, 14 days after application, read-out: weed inhibition rate
Summary of the method: (§1)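 Pre-emergence soil application: upland alluvial loam pots sown with weed seeds mixed into the top 1 cm; one day after sowing, a water-diluted emulsifiable concentrate was sprayed on the soil at 100 L per 10 a, delivering 7.5 g active ingredient per 10 a. Weed inhibition rate (%) scored 14 days after application, duplicate pots.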

[2] = test system: Digitaria ciliaris; assay: as above; details: Digitaria ciliaris, 7.5 g per 10 ares, sprayed one day after sowing, 14 days after application, read-out: weed inhibition rate
Summary of the method: as §1

[3] = test system: Echinochloa crus-galli var. formosensis; assay: Test Example 6: herbicidal effect test by application during growth period of paddy rice (low dose); details: Echinochloa crus-galli; 7.5 g per 10 ares; applied seven days after sowing, flooded pots; 14 days after application; read-out: weed inhibition rate
Summary of the method: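 Paddy-soil pots, flooded ~3 cm after sowing weed seeds at 0-1 cm depth, greenhouse-grown. Seven days after sowing, diluted emulsifiable concentrate applied by dropper at 7.5 g active ingredient per 10 ares. Weed inhibition rate (%) scored 14 days after application, in duplicate.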

[4] = test system: Digitaria ciliaris; assay: Test Example 4: herbicidal effect test by stem and leaf treatment in upland field; details: Digitaria ciliaris; 120 g per 10 ares; sprayed seven days after sowing, upland soil; 14 days after application; read-out: weed inhibition rate
[5] = test system: Echinochloa crus-galli; assay: as above; details: Echinochloa crus-galli; 120 g per 10 ares; sprayed seven days after sowing, upland soil; 14 days after application; read-out: weed inhibition rate
[6] = test system: Echinochloa crus-galli var. formosensis; assay: Test Example 1: herbicidal effect test by soil application in paddy rice; details: 120 g active ingredient per 10 ares, applied immediately after sowing, flooded pots, 14 days after application; for pest or weed control at 1200 g/ha: Echinochloa crus-galli, soil, 336 h, read-out: weed inhibition rate
Summary of the method: (§2)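 Paddy soil in Wagner pots (1/10,000 acre) was fertilized (N:P:K 16:16:16) and puddled, then weed seeds were sown 0–1 cm deep, 30 each. Pots were flooded to ~3 cm and kept in a glass greenhouse. Emulsifiable concentrate diluted in water was dropped on immediately after sowing at 120 g a.i. per 10 ares.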

[7] = test system: Scirpus juncoides; assay: as above; details: 120 g active ingredient per 10 ares, applied immediately after sowing, flooded pots, 14 days after application; for pest or weed control at 1200 g/ha: Schoenoplectiella juncoides, soil, 336 h, read-out: weed inhibition rate
Summary of the method: as §2

[8] = test system: Echinochloa crus-galli var. formosensis; assay: Test Example 5: herbicidal effect test by soil application in paddy rice (low dose); details: Echinochloa crus-galli, soil, 336 h; 7.5 g per 10 ares; applied immediately after sowing, flooded pots; 14 days after application; read-out: weed inhibition rate
Summary of the method: (§3)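 Paddy soil in Wagner pots was fertilized (N:P:K 16:16:16), puddled, sown with 30 seeds per weed species at 0–1 cm, then flooded to ~3 cm in a glass greenhouse. Emulsifiable concentrate diluted in water was dropper-applied into floodwater immediately, at 7.5 g active ingredient per 10 ares; duplicates, scored at 14 days.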

[9] = test system: Monochoria vaginalis; assay: as above; details: Pontederia vaginalis, 336 h, 7.5 g per 10 ares, applied immediately after sowing, flooded pots, 14 days after application, read-out: weed inhibition rate
Summary of the method: as §3

[10] = test system: Scirpus juncoides; assay: as above; details: Schoenoplectiella juncoides, 336 h, 7.5 g per 10 ares, applied immediately after sowing, flooded pots, 14 days after application, read-out: weed inhibition rate
Summary of the method: as §3

C=C1C[C@]2(C)O[C@@]1(C(C)C)C[C@H]2OCc1ccccc1F [2-88, (1R,4S,5R)-5-((2-fluorobenzyl)oxy)-1-isopropyl-4-methyl-2-methylene-7-oxabicyclo[2.2.1]heptane]
≥ 80%: inhibition at 75 g/ha [1] | inhibition at 75 g/ha [2] | inhibition at 75 g/ha [3] | inhibition at 1200 g/ha [4] | inhibition at 1200 g/ha [5] | pest or weed control at 1200 g/ha [6] | pest or weed control at 1200 g/ha [7] | inhibition at 75 g/ha [8] | inhibition at 75 g/ha [9] | inhibition at 75 g/ha [10]

CCCO[C@H]1C[C@]2(C)O[C@@]1(C(C)C)C[C@H]2OCc1ccccc1F [1-1604, (1S,2R,4R,SS)-2-[(2-fluorophenyl)methoxy]-1-methyl-4-isopropyl-5-propoxy-7-oxabicyclo[2.2.1]heptane]
≥ 80%: inhibition at 75 g/ha [1] | inhibition at 75 g/ha [2] | inhibition at 75 g/ha [3] | inhibition at 1200 g/ha [4] | inhibition at 1200 g/ha [5] | weed inhibition rate [6] | weed inhibition rate [7] | inhibition at 75 g/ha [8] | inhibition at 75 g/ha [9] | inhibition at 75 g/ha [10]

CC(C)[C@]12C[C@@H](OCc3cccc(Cl)c3)[C@](C)(C[C@@H]1Br)O2 [1-692, (1S,2R,4R,5S)-5-bromo-2-[(3-chlorophenyl)methoxy]-1-methyl-4-isopropyl-7-oxabicyclo[2.2.1]heptane]
≥ 80%: inhibition at 75 g/ha [1] | inhibition at 75 g/ha [2] | inhibition at 75 g/ha [3] | inhibition at 1200 g/ha [4] | inhibition at 1200 g/ha [5] | pest or weed control at 1200 g/ha [6] | pest or weed control at 1200 g/ha [7] | inhibition at 75 g/ha [8] | inhibition at 75 g/ha [9] | inhibition at 75 g/ha [10]

CC(C)[C@]12C[C@@H](OCc3ccccc3)[C@](C)(C[C@@H]1Br)O2 [1-15, (1S,2R,4R,5S)-5-bromo-1-methyl-2-phenylmethoxy-4-isopropyl-7-oxabicyclo[2.2.1]heptane]
≥ 80%: inhibition at 75 g/ha [1] | inhibition at 75 g/ha [2] | inhibition at 75 g/ha [3] | inhibition at 1200 g/ha [4] | inhibition at 1200 g/ha [5] | pest or weed control at 1200 g/ha [6] | pest or weed control at 1200 g/ha [7] | inhibition at 75 g/ha [8] | inhibition at 75 g/ha [9] | inhibition at 75 g/ha [10]

Cc1cccc(C)c1CO[C@@H]1C[C@]2(C(C)C)O[C@@]1(C)CC2=O [2-5, (1R,4S,5R)-5-((2,6-dimethylbenzyl)oxy)-1-isopropyl-4-methyl-7-oxabicyclo[2.2.1]heptan-2-one]
≥ 80%: inhibition at 75 g/ha [1] | inhibition at 75 g/ha [2] | inhibition at 1200 g/ha [4] | inhibition at 1200 g/ha [5] | pest or weed control at 1200 g/ha [6] | pest or weed control at 1200 g/ha [7] | inhibition at 75 g/ha [8] | inhibition at 75 g/ha [9] | inhibition at 75 g/ha [10]

Cc1ccccc1CO[C@@H]1C[C@]2(C(C)C)O[C@@]1(C)C[C@@H]2F [1-2, (1R,2S,4S,5R)-2-fluoro-1-isopropyl-4-methyl-5-((2-methylbenzyl)oxy)-7-oxabicyclo[2.2.1]heptane]
≥ 80%: inhibition at 75 g/ha [1] | inhibition at 75 g/ha [2] | inhibition at 75 g/ha [3] | inhibition at 1200 g/ha [4] | inhibition at 1200 g/ha [5] | pest or weed control at 1200 g/ha [6] | pest or weed control at 1200 g/ha [7] | inhibition at 75 g/ha [8] | inhibition at 75 g/ha [9]

CC(C)[C@]12C[C@@H](OCc3c(F)cccc3Cl)[C@](C)(C[C@@H]1Br)O2 [1-713, (1S,2R,4R,5S)-5-bromo-2-[(2-chloro-6-fluorophenyl)methoxy]-1-methyl-4-isopropyl-7-oxabicyclo[2.2.1]heptane]
≥ 80%: inhibition at 75 g/ha [1] | inhibition at 75 g/ha [2] | inhibition at 75 g/ha [3] | inhibition at 1200 g/ha [4] | inhibition at 1200 g/ha [5] | pest or weed control at 1200 g/ha [6] | pest or weed control at 1200 g/ha [7] | inhibition at 75 g/ha [8] | inhibition at 75 g/ha [9]

Cc1ccccc1CO[C@@H]1C[C@@]2(C(C)C)C=C[C@]1(C)O2 [3-2, (1R,4S,5R)-4-methyl-5-[(2-methylphenyl)methoxy]-1-isopropyl-7-oxabicyclo[2.2.1]hept-2-ene]
≥ 80%: inhibition at 75 g/ha [1] | inhibition at 75 g/ha [2] | inhibition at 75 g/ha [3] | inhibition at 1200 g/ha [5] | pest or weed control at 1200 g/ha [6] | pest or weed control at 1200 g/ha [7] | inhibition at 75 g/ha [8] | inhibition at 75 g/ha [9] | inhibition at 75 g/ha [10]

CC(C)[C@]12C[C@@H](OCc3ccccc3F)[C@](C)(C[C@@H]1I)O2 [1-753, (1S,2R,4R,SS)-2-[(2-fluorophenyl)methoxy]-5-iodo-1-methyl-4-isopropyl-7-oxabicyclo[2.2.1]heptane]
≥ 80%: inhibition at 75 g/ha [1] | inhibition at 75 g/ha [2] | inhibition at 75 g/ha [3] | inhibition at 1200 g/ha [5] | weed inhibition rate [6] | weed inhibition rate [7] | inhibition at 75 g/ha [8] | inhibition at 75 g/ha [9] | inhibition at 75 g/ha [10]

CC(C)=CCO[C@@H]1C[C@]2(C(C)C)O[C@@]1(C)C[C@@H]2Br [1-672, (1S,2R,4R,5S)-5-bromo-1-methyl-2-(3-methylbut-2-enoxy)-4-isopropyl-7-oxabicyclo[2.2.1]heptane]
≥ 80%: inhibition at 75 g/ha [3] | inhibition at 1200 g/ha [4] | inhibition at 1200 g/ha [5] | pest or weed control at 1200 g/ha [6] | inhibition at 75 g/ha [8] | inhibition at 75 g/ha [9] | inhibition at 75 g/ha [10]

Cc1cccc(C)c1CO[C@@H]1C[C@@]2(C(C)C)C=C[C@]1(C)O2 [3-3, (1R,4S,5R)-5-[(2,6-dimethylphenyl)methoxy]-4-methyl-1-isopropyl-7-oxabicyclo[2.2.1]hept-2-ene]
≥ 80%: inhibition at 75 g/ha [3] | inhibition at 1200 g/ha [4] | inhibition at 1200 g/ha [5] | pest or weed control at 1200 g/ha [6] | pest or weed control at 1200 g/ha [7] | inhibition at 75 g/ha [8] | inhibition at 75 g/ha [9] | inhibition at 75 g/ha [10]

C=C1C[C@]2(C)O[C@@]1(C(C)C)C[C@H]2OCc1ccccc1C [2-72, (1R,4S,5R)-1-isopropyl-4-methyl-5-((2-methylbenzyl)oxy)-2-methylene-7-oxabicyclo[2.2.1]heptane]
≥ 80%: inhibition at 75 g/ha [1] | inhibition at 75 g/ha [2] | inhibition at 75 g/ha [3] | inhibition at 1200 g/ha [4] | inhibition at 1200 g/ha [5] | pest or weed control at 1200 g/ha [6] | pest or weed control at 1200 g/ha [7] | inhibition at 75 g/ha [8] | inhibition at 75 g/ha [9]

CC(C)[C@]12C[C@@H](OCc3cccc(F)c3)[C@](C)(C[C@@H]1Br)O2 [1-690, (1S,2R,4R,5S)-5-bromo-2-[(3-fluorophenyl)methoxy]-1-methyl-4-isopropyl-7-oxabicyclo[2.2.1]heptane]
≥ 80%: inhibition at 75 g/ha [1] | inhibition at 75 g/ha [2] | inhibition at 75 g/ha [3] | inhibition at 1200 g/ha [4] | inhibition at 1200 g/ha [5] | pest or weed control at 1200 g/ha [6] | pest or weed control at 1200 g/ha [7] | inhibition at 75 g/ha [8] | inhibition at 75 g/ha [9]

CC(C)[C@]12C[C@@H](OCc3cccc(F)c3)[C@](C)(CC1=O)O2 [2-351, (1R,4S,5R)-5-((3-fluorobenzyl)oxy)-1-isopropyl-4-methyl-7-oxabicyclo[2.2.1]heptan-2-one]
≥ 80%: inhibition at 75 g/ha [1] | inhibition at 75 g/ha [3] | inhibition at 1200 g/ha [4] | inhibition at 1200 g/ha [5] | pest or weed control at 1200 g/ha [6] | pest or weed control at 1200 g/ha [7] | inhibition at 75 g/ha [8] | inhibition at 75 g/ha [9] | inhibition at 75 g/ha [10]

CC(C)[C@]12C[C@@H](OCc3cccs3)[C@](C)(C[C@@H]1Br)O2 [1-721, (1S,2R,4R,5S)-5-bromo-1-methyl-4-isopropyl-2-(thiophen-2-ylmethoxy)-7-oxabicyclo[2.2.1]heptane]
≥ 80%: inhibition at 75 g/ha [1] | inhibition at 75 g/ha [2] | inhibition at 75 g/ha [3] | inhibition at 1200 g/ha [5] | pest or weed control at 1200 g/ha [6] | pest or weed control at 1200 g/ha [7] | inhibition at 75 g/ha [8] | inhibition at 75 g/ha [9] | inhibition at 75 g/ha [10]
